Reference: patent US20150071856A1, “ANTAGONISTIC PEPTIDES FOR FRIZZLED-1 AND FRIZZLED-2” (Universiteit Maastricht, priority 2013, published 2015)
“Also recorded” adds a separate entry of the source. Residues, ends and D or L forms follow the SMILES beside them.

Tests used:
frizzled-1 (rFzd-1) = biological target: T1, frizzled-1 (rFzd-1) (Rattus norvegicus, UniProt Q08463); assay: Activity assay: luciferase reporter in HEK superTOPflash cells transfected with frizzled-1; assay type: cell-based
T1 construct: expressed in transfected cells; host or cells: HEK293 superTOPflash (transient, Fugene6, pcDNA3.1/hygro)
Description: (§1) Human embryonic kidney (HEK) cells were used for screening. These cells have a luciferase construct stably transfected into the genome (see FIG. 2A), such that when the frizzled receptor is activated and β-catenin is increased, the luciferase is activated by transcription and light can be measured.
(§2) The peptides were tested by transfecting the frizzled-1 or the frizzled-2 receptor and addition of UM206(S-S) to the cell culture. For testing antagonistic activity, UM206 was added and the natural ligand Wnt3a was added, which is a natural stimulus for the canonical pathway.
(§3) Day 2: Transfection 12-Well Plates • heat Fugene6 and DNA 15 minutes at RT • 2 ml serum-free medium in tube • add 3 μl fugene • add 2 μg DNA • incubate 30 minutes at RT • wash with PBS • add 50 μl transfectiemix • add 1 ml antibiotica-free medium
(§4) Day 3: Add Conditioned Medium or UM206
(§5) Day 4: Luciferase Activity Measurements • remove medium • wash with PBS • add 500 μl ⅕ lysisbuffer • shake for 60 minutes • centrifuge in tube • 20 μl lysaat and 50 μl luciferase in new tube for measurement • vortex • measure
(§6) Three areas of high homology that contained two cysteines are underlined (UM207), (UM208) and (UM206). In FIGS. 9B through 9D, the inhibitory effect of these three peptides on Wnt3a-induced luciferase activity in HEK293-superTOPflash is shown. […] Again, the peptides by themselves had no effect on the luciferase activity.
(§7) To determine the inhibitory constant of UM206-8, HEK293-superTOPflash cells were transfected with either rFzd-1 or -2 and incubated with Wnt3a (10^−9M) in the presence of increasing concentrations of either of the peptides (FIG. 15). For UM206, a biphasic inhibition curve was observed that was best fitted with a two-binding-state model.
(§8) The cell lines were cultured in 75 cm^2 culture flasks (Corning, Schiphol, the Netherlands) in Dulbeco's modified essential medium with L-glutamine (2 mM), 10% fetal calf serum (Invitrogen, Merelbeke, Belgium), and 1% gentamycin (Sigma-Aldrich, Zwijndrecht, The Netherlands). Before starting the experiment, the cell lines were treated with plasmocin 25 μg/ml (Invivogen, Toulose, France) and tested with a mycoalert mycoplasma detection kit (Lonza, Rockland Me., USA). Cells were transiently transfected with Fugene6 (Roche, Indianapolis Ind., USA) with plasmid DNA, pcDNA3.1/hygro (Invitrogen) with frizzled-1/2/4 or Wnts 3a-5a or with pcDNA3.0 (Invitrogen) containing the β-catenin or frizzled-5 sequence. After transfection, the cells were cultured for 24 hours in conditioned medium, collected from the cultured L-cells, L-cells with Wnt3a or 5a (Invitrogen). At the same moment the antagonist was added.

frizzled-2 (rFzd-2) = biological target: T2, frizzled-2 (rFzd-2) (Rattus norvegicus, UniProt Q08464); assay: Activity assay: luciferase reporter in HEK superTOPflash cells transfected with frizzled-2; assay type: cell-based
T2 construct: expressed in transfected cells; host or cells: HEK293 superTOPflash (transient, Fugene6, pcDNA3.1/hygro)
Description: as §1, §2, §3, §4, §5, §6, §7, §8

hFzd-5 = biological target: T3, hFzd-5 (Homo sapiens, UniProt Q13467); assay: Receptor specificity: luciferase in HEK293 superTOPflash cells overexpressing hFzd-5; assay type: cell-based; conditions: UM206 1.10^−8 M
T3 construct: expressed in transfected cells; host or cells: HEK293 superTOPflash (transient, Fugene6, pcDNA3.0)
Description: In FIG. 3, Panel E, the efficacy of UM206 to block the Wnt3a-induced activation of luciferase activity in HEK293 superTOPflash cells transfected with different Fzds is shown.
as §8

myocardial infarction = conditions: mouse, in vivo
Description: To this end, we administered UM206 subcutaneously by an osmotic minipump (6 microgram/kg/day); the control group was equipped with a saline-filled minipump. The minipumps were implanted at the time of infarct induction and lasted for up to five weeks.
Male Swiss mice were used (10-12 weeks of age, Charles River, Maastricht, The Netherlands). The animals were randomly included into the three different experimental groups. […] In the treatment study, either UM206 (6 μg/kg/day) or saline were administrated by an osmotic minipump (Alzet 2002 or 2006 for two- and five-week treatments, respectively; Alzet, Cupertino Calif., USA). MI was induced, under isofluorane anesthesia as previously described (van den Borne et al., 2009).

rFzd-1 or -2 = assay: TOPflash experiments in CHO and COS-7 cells overexpressing rFzd-1 or -2; assay type: cell-based, rat
Description: as §6
For the luciferase experiments not in HEK cells, the cells were additionally transfected with a TOPflash construct, eight TCF/LEF binding sites cloned into the pTA-Luc vector. Luciferase activity was measured using luciferase assay system (Promega, Madison Wis., USA).

infarct area = assay: Histological, qPCR and Western blot analysis of the infarct area in mice; assay type: in vivo
Description: This was confirmed by histological analysis of the infarct area.
RNA was isolated using the Trizol method (Invitrogen). For the RT-PCR, the RNA was transcribed to cDNA with Iscript™ cDNA synthesis kit (Bio-Rad, Hercules Calif., USA), Syber green (Eurogentec, Ghent, Belgium) was used for the detection of cDNA levels and cyclophilin served as the house keeping gene. In Supplementary methods panel 5, the primer sequences are shown.
For Western blot, cells were homogenized in ice-cold Laemmli buffer and protein content was measured using the BCA protein assay (Pierce Biotechnology Inc., Rockford Ill., USA); proteins were denatured by boiling, separated on a 10% SDS-page gel, and transferred onto a Hybond C nitrocellulose membrane (Amersham Biosciences, Little Chalfont, United Kingdom). After blocking, membranes were incubated overnight at 4° C. with primary antibodies against β-catenin, α-SMA (both 1:2000, BD Biosciences, Franklin Lakes N.J., USA) or β-actin (1:2000 Sigma-Aldrich). Anti-mouse immunoglobulin G 1/5000 (Vector Labs Inc.) was used as the secondary antibody, and the membranes were developed using the Supersignal West Pico chemiluminescence kit (Pierce). Images of the blots were analyzed with image analysis software (Qwin Leica, Cambridge, United Kingdom).
One-half of the hearts of the mice was embedded in paraffin and cut in 4 μm sections. The paraffin sections were rehydrated and washed in PBS. One section was stained with AZAN, allowing an accurate determination of the infarct size. To visualize the myofibroblasts in the infarct area, the sections were incubated with an antibody directed against α-smooth muscle actin (Sigma-Aldrich), followed by incubation with the peroxidase-conjugated secondary antibody (Vector laboratories). Nuclei were visualized by hematoxylin. Photos were taken with a Leica (CTR500, 63×/0.85) camera and analyzed with the Quantimet program (QWin/QGo). An examiner blinded to the groups of the animals obtained all measurements. For the experiments with Rhodamine-labeled UM206, frozen sections (4 μm) of mouse kidney and small intestine were used.

[1] = Wnt3a-induced luciferase activity, antagonists at 1.10^−9 M

T2 sequence (Q08464 29-570): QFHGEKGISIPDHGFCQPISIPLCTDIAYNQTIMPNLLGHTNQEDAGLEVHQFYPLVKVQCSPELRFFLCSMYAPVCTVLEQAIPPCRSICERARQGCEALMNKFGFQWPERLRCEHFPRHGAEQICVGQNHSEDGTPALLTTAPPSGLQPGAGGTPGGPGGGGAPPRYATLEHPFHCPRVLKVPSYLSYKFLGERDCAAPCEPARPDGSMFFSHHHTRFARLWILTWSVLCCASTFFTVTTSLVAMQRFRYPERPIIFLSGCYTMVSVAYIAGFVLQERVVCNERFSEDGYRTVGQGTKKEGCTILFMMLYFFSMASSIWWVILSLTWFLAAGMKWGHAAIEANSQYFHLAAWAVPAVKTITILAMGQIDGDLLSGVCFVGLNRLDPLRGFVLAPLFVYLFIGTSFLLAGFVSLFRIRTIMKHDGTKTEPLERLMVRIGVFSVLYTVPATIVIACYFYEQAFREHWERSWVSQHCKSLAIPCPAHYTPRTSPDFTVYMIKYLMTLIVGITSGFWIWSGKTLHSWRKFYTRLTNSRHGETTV
T1 sequence (Q08463 69-641): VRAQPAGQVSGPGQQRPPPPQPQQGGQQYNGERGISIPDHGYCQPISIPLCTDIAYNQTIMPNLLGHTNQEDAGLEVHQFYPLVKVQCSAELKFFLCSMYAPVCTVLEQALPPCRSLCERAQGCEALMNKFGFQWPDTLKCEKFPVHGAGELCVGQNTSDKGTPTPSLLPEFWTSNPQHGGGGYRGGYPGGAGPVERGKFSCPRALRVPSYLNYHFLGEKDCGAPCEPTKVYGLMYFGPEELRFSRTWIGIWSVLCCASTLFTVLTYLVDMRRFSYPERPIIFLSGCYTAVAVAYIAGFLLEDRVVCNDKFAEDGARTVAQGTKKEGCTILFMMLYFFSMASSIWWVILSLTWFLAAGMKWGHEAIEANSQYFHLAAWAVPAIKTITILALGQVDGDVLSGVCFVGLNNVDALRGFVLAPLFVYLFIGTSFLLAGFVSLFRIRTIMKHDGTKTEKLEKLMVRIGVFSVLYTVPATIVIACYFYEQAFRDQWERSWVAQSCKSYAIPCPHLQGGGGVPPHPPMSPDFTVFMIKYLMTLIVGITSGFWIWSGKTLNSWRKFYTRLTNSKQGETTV
T3 sequence (Q13467 27-585): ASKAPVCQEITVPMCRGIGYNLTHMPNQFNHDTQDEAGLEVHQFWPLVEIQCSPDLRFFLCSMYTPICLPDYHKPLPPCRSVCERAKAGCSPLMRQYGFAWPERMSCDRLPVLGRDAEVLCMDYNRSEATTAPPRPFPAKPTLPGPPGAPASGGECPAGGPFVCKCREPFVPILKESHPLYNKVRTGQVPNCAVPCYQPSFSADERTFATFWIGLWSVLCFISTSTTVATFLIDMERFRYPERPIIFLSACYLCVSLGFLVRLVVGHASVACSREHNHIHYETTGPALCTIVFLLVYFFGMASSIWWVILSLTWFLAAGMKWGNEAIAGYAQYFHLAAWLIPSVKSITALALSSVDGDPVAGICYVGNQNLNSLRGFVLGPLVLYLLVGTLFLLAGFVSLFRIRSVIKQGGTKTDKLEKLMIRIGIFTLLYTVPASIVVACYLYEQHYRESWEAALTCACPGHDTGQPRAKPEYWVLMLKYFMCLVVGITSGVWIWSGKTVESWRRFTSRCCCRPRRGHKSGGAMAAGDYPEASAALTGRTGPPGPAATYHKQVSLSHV

CSCC[C@H](NC(=O)CNC(=O)[C@H](CCC(=O)O)NC(=O)[C@H](CO)NC(=O)[C@@H](NC(=O)[C@H](CCCCN)NC(=O)[C@H](CC(N)=O)NC(=O)[C@H](CS)NC(C)=O)[C@@H](C)O)C(=O)N[C@@H](CC(=O)O)C(=O)NCC(=O)N[C@@H](CS)C(=O)N[C@@H](CCC(=O)O)C(=O)N[C@@H](CC(C)C)C(N)=O [UM206, Ac-Cys-Asn-Lys-Thr-Ser-Glu-Gly-Met-Asp-Gly-Cys-Glu-Leu-NH2] (Ac-CNKTSEGMDGCEL-NH2)
% of inhibition for Fzd-1 (frizzled-1 (rFzd-1); [1]): 72.15%
block of Wnt3a-induced luciferase activity, rFzd-1 (frizzled-1 (rFzd-1); peptide 1.10^−8 M): blocked almost completely; also recorded: abolished the induction of luciferase activity almost completely
selectivity frizzled-2 over frizzled-1 (frizzled-2 (rFzd-2)): slightly more selective for frizzled-2 over frizzled-1
% of inhibition for Fzd-2 (frizzled-2 (rFzd-2); [1]): 75.06%
block of Wnt3a-induced luciferase activity, rFzd-2 (frizzled-2 (rFzd-2); peptide 1.10^−8 M): blocked almost completely; also recorded: abolished the induction of luciferase activity almost completely
effect on Wnt3a-induced luciferase activity, frizzled-5 (hFzd-5): no effect
adverse effects of chronic administration (myocardial infarction): did not observe any adverse effects
effects on other organs known to contain Fzd-2, including kidney and small intestine (myocardial infarction): did not observe any effects
inhibition of Wnt3a-induced TOPflash activation in CHO and COS-7 cells (rFzd-1 or -2): can selectively block canonical Wnt/Fzd-1/2 signaling
infarct area size versus saline (infarct area; 2 and 5 weeks after MI): significantly smaller
thickness of the infarct area versus saline (infarct area; 2 and 5 weeks after MI): significantly thicker
myofibroblast numbers in the infarct area versus saline (infarct area; five weeks post-MI): significantly elevated number
blood vessels in the infarct area versus saline (infarct area; five weeks treatment): increased amount of blood vessels
collagen levels in the infarct area versus saline (infarct area; five weeks treatment): reduced collagen levels
α-SMA levels in infarcts versus saline (infarct area; five-week-old infarcts, qPCR and Western blotting): significantly higher α-SMA levels
myofibroblast numbers in the infarct area versus saline (infarct area; two weeks post-MI): more than four-fold higher; also recorded: four-fold more myofibroblasts
